Results published in EP0367040A1, “Compounds for the treatment of urinary incontinence” (Kabi Pharmacia AB, priority 1988, dated 1990).
Where two headings read alike, the source gives them in different places.

What was measured:
rabbit urinary bladder [1] = assay: Anticholinergic effect on carbachol-stimulated isolated urinary bladder strips; assay type: cell-based; conditions: Oryctolagus cuniculus, read-out: Carbachol stim.rabbit urinary bladder KD
Protocol: (§1) Carbachol was used as an agonist and was added to the organ bath cumulatively.

rabbit papillary muscles = assay: Electrically stimulated isolated papillary muscle (heart), contraction amplitude; assay type: cell-based; conditions: Oryctolagus cuniculus, read-out: El.stim. papillary muscle, % inhibition of 1 µM
From the text: The effects on heart were investigated by using isolated, rabbit papillary muscles, which were electrically stimulated at a submaximum frequency. The contraction amplitude was re­corded.

rabbit portal vein = assay: Electrically induced submaximal contractions of isolated portal vein; assay type: cell-based; conditions: Oryctolagus cuniculus, read-out: El.stim. portal vein % inhibition by 1 µM
rabbit urinary bladder [2] = assay: Inhibition of electrically induced contractions of isolated urinary bladder strips; assay type: cell-based; conditions: Oryctolagus cuniculus; electrically stimulated isolated rabbit bladder strips; only about half of the contractile response is mediated by cholinergic nerves; read-out: El.stim. rabbit urinary bladder IC50
Protocol: as §1

albino mice = assay: Mydriatic effect, pupil diameter in unanaesthetized mice after intravenous dosing; assay type: in vivo
Protocol: For studying the mydriatic effect of the compounds un­anaesthetized albino mice were used. The substance was given intravenously in different doses and the pupil diame­ter was measured by means of a microscope every tenth minute until the effect disappeared.

muscarinic receptors = assay: Selectivity factor: isolated human urinary bladder versus human salivary gland (QNB radioligand); assay type: binding; conditions: quotient of inhibitory concentration on isolated human urinary bladder and human salivary gland; lower figure = higher selectivity for the bladder
From the text: The human salivary glands were obtained from patients undergoing operation for treatment of cancer in these glands. As the radioligand by which the muscarinic receptors were label led, QNB was used. The method is described in detail by S. Batra et al. in Psychopharmacology, 1986, 90, 1-4.

[3] = carbachol as agonist, added cumulatively, isolated rabbit bladder strips
[4] = 1 µM, isolated rabbit papillary muscle, electrically stimulated
[5] = 1 µM, isolated rabbit portal vein, electrically stimulated

Row | SMILES | Kb (rabbit urinary bladder [1]) | inhibition at 1 µM (rabbit papillary muscles) | inhibition at 1 µM (rabbit portal vein) | IC50 (rabbit urinary bladder [2]) | Kb (rabbit urinary bladder [1]; [3]) | inhibition at 1 µM (rabbit papillary muscles; [4]) | Mydriatic effect, % dilatation by 1 mg/kg i.v. (albino mice) | inhibition at 1 µM (rabbit portal vein; [5]) | Selectivity factor for human urinary bladder in comparison with human salivary gland (muscarinic receptors)
1 | CN1[C@@H]2CC[C@H]1C[C@@H](OC(=O)C(CO)c1ccccc1)C2 (stereo partly shown) [Atropine, reference compound] | 0.002 µM | 5% | 20% |  |  |  |  |  | 
2 | CC(C)N(CCN(C)C(=O)C(c1ccccc1)c1ccccc1)C(C)C.Cl [Example No 3, N-methyl-N-(2-diisopropylaminoethyl)-2,2-diphenyl-acetamide hydrochloride] |  |  |  | 8.5 µM | 0.06 µM | 8% | 2% | 10% | 6
3 | CC(C)N(CCCN(C)C(=O)C(c1ccccc1)c1ccccc1)C(C)C [Example No 4, N-methyl-N-(3-diisopropylaminopropyl)-2,2 diphenylacetamide] |  |  |  | 35.2 µM | 0.55 µM | 9% | 0% | 4% | 5
4 | CN(CCCN(C)C(C)(C)C)C(=O)C(c1ccccc1)c1ccccc1.Cl [Example No 7, N-methyl-N-[3-(N-methyl-N-tert-butyl-amino)propyl]-2,2-diphenylacetamide hydrochloride] |  |  |  | 25.7 µM | 2.9 µM | 0% | 0% | 4% | 2
5 | CC(C)N(CCNC(=O)C(c1ccccc1)c1ccccc1)C(C)C [Example No 10, N-(2-diisopropylaminoetyl)-2,2-diphenylacetamide] |  |  |  | 5.3 µM | 0.11 µM | 0% | 11% | 10% | 6
6 | CCN(CC)CC#CCOC(=O)C(O)(c1ccccc1)C1CCCCC1 (stereo not shown) [Oxybutynin, 2-cyclohexyl-2-hydroxy-2-phenylacetic acid 4-(diethylamino)-2-butynyl ester, reference compound] | 0.006 µM | 3% | 6% |  |  |  | 95% |  | 
7 | CC(CC(c1ccccc1)c1ccccc1)NC(C)(C)C (stereo not shown) [Terodiline, N-t-butyl-3,3-diphenyl-1-methylpropylamine, reference compound] |  |  |  | 14.5 µM | 0.22 µM | 14% | 1% | 4% | 93
